Measurements: patent US7579006B2, “Method of treating immune pathologies with low dose estrogen” (Oregon Health and Science University, priority 2000, dated 2009)
Like-named read-outs stand apart in the source and are kept apart here.

Key:
spinal cord mRNA = experiment: RNase protection assay of chemokine, chemokine receptor and cytokine mRNA in spinal cords of Tg females with EAE; format: in vivo, mice; conditions: 0.36 mg pellet
Method: RNase protection assay. Total RNA was extracted from frozen spinal cords or lymph node cells using the STAT-60 reagent (Tel-Test, Inc., Friendswood, Tex.). Chemokine expression was determined by using the RiboQuant RPA kit (PharMingen) according to the manufacturer's instructions. A multiprobe set detected the following chemokine transcripts: C—X—C chemokines: MIP-2 and IP-10; C—C chemokines: RANTES, MIP-1α, MCP-1, and TCA-3; and C chemokine: Ltn. The chemokine receptor set detected the following transcripts: CCR1, CCR1b, CCR2, CCR3, CCR4, CCR5. Using RPA multiprobe it was possible to detect the following cytokines: IL-4, IL-10, TNF-α, LTβ, IFN-γ. The sample loading was normalized by the housekeeping gene, L32, included in each template set. RPA analysis was performed on […] total RNA hybridized with probes labeled with [^32P]UTP. After digestion of ssRNA, the RNA pellet was solubilized and resolved on a 5% sequencing gel. Controls included the probe set hybridized to transfer RNA only, appropriate control RNA which serves as integrity control for the RNA sample, and yeast tRNA as a background control. For quantification, gels were exposed by phosphorimaging (Bio-Rad Laboratories, Hercules, Calif.) and radioactivity in individual bands (after background subtraction) in comparison with L32 was assessed with Quantity One software (Bio-Rad Laboratories, Hercules, Calif.).
To optimize detection of clinically-related changes, chemokine expression was compared in 17β-estradiol protected versus sham pellet implanted mice during the peak acute phase of disease (16-17 days after immunization with MBP-Ac1-11 peptide/CFA) and during the chronic phase (28 days after immunization). […] A quantitative method—the RNase protection assay—was employed to examine RNA synthesis for the following chemokines: RANTES, MIP-1α, MCP-1, and TCA-3 (C—C-subfamily); and MIP-2 and IP-10 (C—X—C-subfamily). The tissue sample for RPA was prepared by homogenization of whole spinal cord and total cellular RNA was extracted.

[1] = Serum 17β-estradiol measured by RIA in Tg mice; format: in vivo; conditions: 0.36 mg pellet
Method: Androgen and estrogen detection. Mice were bled by cardiac puncture and the blood was allowed to clot at 4° C. overnight. The samples were centrifuged, and the sera collected and stored at −80° C. until hormone analysis was performed. Serum levels of estrogen were determined by radioimmunoassay (RIA) after Sephadex LH-20 column chromatography, as described in Roselli et al., Endocrine 64:139 (1996). All samples were analyzed in a single assay.
17β-estradiol treatment. For 17β-estradiol hormone therapy, 3-mm pellets containing 0.36 mg of 17β-estradiol (Innovative Research of America, Sarasota, Fla.), expected to provide physiological equivalence of the estrus cycle (150-200 pg/ml in serum) over 60 days, were implanted s.c. on the animal's back 7 days before induction of EAE. […] The 17β-estradiol pellets provide continuous controlled release of a constant level of hormone over a period of 60 days. Serum concentrations of 17β-estradiol were evaluated in representative mice from each group. Sham treated mice had variable levels of 17β-estradiol that reflected both estrus and diestrus mice (ranging from about 20 to 200 pg/ml, on average about 50 pg/ml). […] E2-treated intact mice were also variable (about 200-400 pg/ml), reflecting the combination of native estrus/diestrus levels plus the exogenous estradiol from the pellet, whereas the E2-treated OVX mice were somewhat lower (about 150-200 pg/ml).

[2] = cited from earlier work
[3] = tested on: ovariectomized Tg female mice; experiment: EAE in ovariectomized BV8S2 Tg female mice; format: in vivo
DLN cells = experiment: PLP 139-151 induced cytokine production by DLN cells (ELISA); format: in vivo, mice; conditions: 48-72 hours after PLP 139-151 stimulation
Method: Cytokine detection by ELISA. DLN cells were cultured at 4×10^6/ml and stimulated with the appropriate antigen in 24 well culture plates. Cell culture supernatants were recovered between 48-72 hr and frozen at −70° C. until needed for the cytokine assay. Measurement of cytokines was performed by ELISA using cytokine specific capture and detection antibodies (Pharmingen). Standard curves for each assay were generated using recombinant mouse cytokines (Pharmingen), and the concentration of cytokines in the cell supernatants was determined by interpolation from the appropriate standard curve. IFN-γ, TNF-α and IL-12 were chosen as representative Th1 cytokines, while IL-4 and IL-10 were measured as representative Th2 cytokines.
To determine if low dose estrogen therapy altered cytokine secretion patterns, DLN cells were prepared from individual mice at the peak of clinical EAE and cytokine levels were measured 48-72 hours after in vitro stimulation with PLP 139-151. IFN-γ, IL-12, and TNF-α were used as representative Th1 cytokines while IL-4, and IL-10 were used as representative Th2 cytokines. […] Despite the lack of statistical significance, the trend towards higher Th1 and lower Th2 cytokines points towards a subtle shift in the Th1/Th2 balance. The shift can be seen more clearly when the cytokine response of each individual mouse is plotted as a ratio of IFN-γ to IL-10 (FIG. 5C). There was a marked decrease in the frequency of high Th1 responder mice in the E2 and E3 treated groups when compared to placebo animals that approached significance (p=0.09 for the 5.0 mg E3 treated mice). Additionally, no informative trends were detected in IL-4 secretion (FIG. 5D), and TNF-α secretion was very often below the limits of detection for the assay (<31.25 pg/ml). Modest changes in cytokine responses induced by low dose estrogen therapy were also observed in the B10.PL model and were consistent with the data described for the SJL model.

[4] = 0.36 mg pellet, OVX Tg females (Example III)

Structure (SMILES): C[C@]12CC[C@@H]3c4ccc(O)cc4CC[C@H]3[C@@H]1CC[C@@H]2O [17β-estradiol]
- LT-β, TNF-α and IFN-γ message in spinal cord at peak of EAE (spinal cord mRNA): significantly inhibited
- chemokine mRNA expression in spinal cord (RANTES, MIP-1α, MIP-2, IP-10, MCP-1) (spinal cord mRNA; intact Tg females, peak of disease p<0.001): profoundly lower levels
- chemokine mRNA expression in spinal cord (spinal cord mRNA; ovariectomized females): strongly inhibited
- mRNA levels for CCR1, CCR2 and CCR5 in spinal cord (spinal cord mRNA; p<0.001): strongly inhibited
- serum 17β-estradiol ([1]; OVX Tg mice): 100 to 200 pg/mL
- serum 17β-estradiol ([1]; OVX Tg mice, listed as E2): 150 to 200 pg/mL
- serum 17β-estradiol ([1]; intact Tg mice (pellet plus native hormone)): 150 to 400 pg/mL
- serum 17β-estradiol ([1]; intact Tg mice (pellet plus native hormone), listed as E2): 200 to 400 pg/mL
- serum concentration from 60-day release pellet ([2]; 0.025 mg pellet): 5 to 10 pg/mL
- serum concentration from 60-day release pellet ([2]; 0.1 mg pellet): 25 to 50 pg/mL
- serum concentration from 60-day release pellet ([2]; 0.36 mg pellet): 150 to 200 pg/mL
- serum concentration from 60-day release pellet ([2]; 1.5 mg pellet): 800-1,000 pg/ml
- serum concentration from 60-day release pellet ([2]; 2.5 mg pellet): 1,500-2,000 pg/ml
- serum concentration from 60-day release pellet ([2]; 5 mg pellet): 3,000-4,000 pg/ml
- serum concentration from 60-day release pellet ([2]; 15 mg pellet): 9,000-10,000 pg/ml
- CDI [3, 4]: 40.0 ± 8.5
- Incidence [3, 4]: 8/11
- Onset [3, 4]: 16.5 ± 2.3
- Peak [3, 4]: 2.6 ± 0.6
- Average CDI (10-30) ([3]; Ovx Tg females): 40.0 ± 22.1^B
- Incidence ([3]; Ovx Tg females): 11/15
- Mortality ([3]; Ovx Tg females): 4/15
- Onset ([3]; Ovx Tg females): 13.6 ± 1.5
- Peak ([3]; Ovx Tg females): 3.5 ± 0.8
- IL-10 secretion by DLN cells (DLN cells): modest increase
- IL-12 secretion by DLN cells (DLN cells): small decrease
- secretion of IFN-γ by DLN cells (DLN cells; p>0.10): consistently lower
